Measurements: US20250243180A1, “TARGETED PROTEIN DEGRADATION” (Monte Rosa Therapeutics AG, priority 2023, published 2025)
pEC50: −log10 of the molar value. Read-outs that look alike come from different tables or passages of the source.

What was measured:
CRBN-DDB1 = CRBN-DDB1 (Homo sapiens (Human), UniProt Q96SW2); assay: Compound binding to CRBN by HTRF assay
Method: Compound activity was monitored in a Homogenous Time-Resolved Fluorescence (HTRF) assay using 1-[5-({2-[2-(2-{[2-(2,6-dioxopiperidin-3-yl)-1,3-dioxo-2,3-dihydro-1H-isoindol-4-yl]oxy}acetamido)ethoxy]ethyl}carbamoyl)pentyl]-3,3-dimethyl-2-[(1E,3E)-5-[(2E)-1,3,3-trimethyl-5-sulfo-2,3-dihydro-1H-indol-2-ylidene]penta-1,3-dien-1-yl]-3H-indol-1-ium-5-sulfonate as a fluorescent probe. Biochemical assays were conducted in Greiner white 384 well HiBase plates (Cat. No 784075-25) in 20 μL total volume. A one pot detection solution of CRBN-DDB1 (2.5 nM), Anti-His Terbium Cryptate Gold (1×, PerkinElmer Cat. #: 61HI2TLB), and Cy5-Thalidomide (100 nM, Tenova Cat.: T52461) was prepared in 20 mM HEPES, 20 mM NaCl, 0.2 mM TCEP, 0.2 mM EDTA, and 0.005% Tween20 was dispensed to each assay plate. Compounds were stored in dry, ambient temperatures at 10 mM. An 11-point, 1:3 dilution series was prepared from 10 mM stock concentrations in Echo-compatible LDV plates. 10 nL of each compound dilution series was dispensed into assays wells using an Echo 650 (Labcyte Inc. USA). 20 nL of 10 mM Lenalidomide was transferred into the active-control wells for the assay and 20 nL of DMSO was transferred into the neutral-control wells. The assay was then allowed to incubate for 30 min at ambient temperature after transferring compound. Plate measurements were taken on a Pherastar FSX (BMG Labtech, Germany) using the HTRF Red filter (Ex. 337 nm, em1: 620 nm, em2: 665 nm) (Flashes: 50, Integration time: 60-400 us, Z-height: 10 mm, Ratio-multiplier: 10,000). The HTRF signal was then subsequently normalized to the neutral and active controls. Analysis and EC50 values were derived using KNIME analytics (KNIME Zurich) transformation and fitting within Collaborative Drug Discovery (Collaborative Drug Discovery USA). Ki was derived from the geometric mean of the EC50 values using the Cheng-Prustoff transformation.

NEK7 = NEK7 (Homo sapiens (Human), UniProt Q8TDX7+Q96SW2); assay: NEK7 NanoBiT degradation assay in Cal51 NEK7 NanoBiT cell line; type: cell-based; details: Cal51 NEK7 NanoBiT cells, 24 hours; for Dmax: CAL-51
Chain of NEK7 (Q8TDX7 whole entry): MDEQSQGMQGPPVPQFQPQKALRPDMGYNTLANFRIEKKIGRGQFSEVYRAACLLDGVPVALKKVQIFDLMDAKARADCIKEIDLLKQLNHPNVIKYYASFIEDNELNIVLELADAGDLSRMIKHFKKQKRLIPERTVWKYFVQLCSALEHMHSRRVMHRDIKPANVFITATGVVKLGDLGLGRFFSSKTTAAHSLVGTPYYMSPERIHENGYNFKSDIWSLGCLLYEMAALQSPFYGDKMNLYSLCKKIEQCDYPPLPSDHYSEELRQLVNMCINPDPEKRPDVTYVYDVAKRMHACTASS
Chain of NEK7 (Q96SW2 whole entry): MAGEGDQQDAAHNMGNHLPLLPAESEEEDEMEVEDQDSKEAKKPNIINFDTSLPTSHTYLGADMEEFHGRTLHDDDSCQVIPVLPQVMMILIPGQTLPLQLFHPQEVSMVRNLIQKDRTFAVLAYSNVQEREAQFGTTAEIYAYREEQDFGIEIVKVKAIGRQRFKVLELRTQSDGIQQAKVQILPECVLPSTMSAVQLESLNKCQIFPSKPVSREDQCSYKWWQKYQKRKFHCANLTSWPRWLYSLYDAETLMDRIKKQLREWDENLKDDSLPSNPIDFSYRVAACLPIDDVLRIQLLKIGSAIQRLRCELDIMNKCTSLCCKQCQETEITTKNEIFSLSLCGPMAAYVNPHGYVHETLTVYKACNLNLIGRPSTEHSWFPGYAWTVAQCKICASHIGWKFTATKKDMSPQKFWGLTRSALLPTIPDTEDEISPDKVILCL
Chain of NEK7 (Q16531 2-1140 partner): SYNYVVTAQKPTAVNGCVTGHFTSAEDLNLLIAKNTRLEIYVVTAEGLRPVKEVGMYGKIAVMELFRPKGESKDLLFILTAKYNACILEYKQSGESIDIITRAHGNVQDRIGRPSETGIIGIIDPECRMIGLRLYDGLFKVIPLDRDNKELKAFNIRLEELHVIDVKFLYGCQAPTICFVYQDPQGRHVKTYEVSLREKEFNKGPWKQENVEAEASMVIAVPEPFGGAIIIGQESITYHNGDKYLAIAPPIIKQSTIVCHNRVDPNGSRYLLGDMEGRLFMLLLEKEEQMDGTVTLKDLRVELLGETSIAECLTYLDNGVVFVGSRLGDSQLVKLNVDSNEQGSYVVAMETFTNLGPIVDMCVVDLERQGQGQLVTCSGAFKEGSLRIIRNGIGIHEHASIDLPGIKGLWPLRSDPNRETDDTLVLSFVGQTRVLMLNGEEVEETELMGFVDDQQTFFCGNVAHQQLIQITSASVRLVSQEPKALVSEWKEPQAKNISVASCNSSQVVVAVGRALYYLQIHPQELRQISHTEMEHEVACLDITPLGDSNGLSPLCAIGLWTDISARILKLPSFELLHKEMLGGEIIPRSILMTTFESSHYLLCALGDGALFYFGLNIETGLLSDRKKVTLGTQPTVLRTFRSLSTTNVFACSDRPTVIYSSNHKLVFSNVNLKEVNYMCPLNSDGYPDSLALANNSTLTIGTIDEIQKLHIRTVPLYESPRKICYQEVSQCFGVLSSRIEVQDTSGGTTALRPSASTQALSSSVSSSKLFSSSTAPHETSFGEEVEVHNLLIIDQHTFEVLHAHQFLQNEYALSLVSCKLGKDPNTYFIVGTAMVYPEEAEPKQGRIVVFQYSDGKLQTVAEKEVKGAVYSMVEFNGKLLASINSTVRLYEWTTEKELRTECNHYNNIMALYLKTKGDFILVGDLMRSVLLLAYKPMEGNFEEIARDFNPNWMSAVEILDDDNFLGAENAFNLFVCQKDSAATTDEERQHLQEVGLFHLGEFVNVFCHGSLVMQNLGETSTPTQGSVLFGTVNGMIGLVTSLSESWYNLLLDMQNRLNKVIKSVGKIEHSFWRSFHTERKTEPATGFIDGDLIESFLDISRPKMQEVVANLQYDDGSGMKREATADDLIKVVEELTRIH
Method: Cal51 NEK7 NanoBiT cell line was generated via CRISPR Knock-In of the HiBiT tag in NEK7 gene and stable infection with a lentivirus carrying LgBiT protein. The cell line was generated in house. For the experiment, cells were plated in 384-well white flat bottom plates (Corning, 3570BC) at 2500 cells per well using Multiflo (BioTek/Agilent) and in 25 μl volume in DMEM experimental medium: DMEM (DMEM, high glucose, HEPES, no phenol red (ThermoFisher Scientific, 21063029) supplemented with 10% FBS (Corning, 35-075-CV), 1% Penicillin/Streptomycin ((ThermoFisher Scientific, 15140-122), and 1% Endurazine (Nano-Glo Endurazine Live Cell Substrate (Promega, N2571)). Cells were incubated for 16 hours at 37° C., 5% CO2 before compound addition. For dose response determination, 2.5 nL of a compound at different concentrations (stock compound concentration range: 10 mM to 0.5 μM, final concentration range inside cell plate: 1 μM to 0.05 nM) were dispensed into the plate using an Echo® 650 liquid handling device (Backman Coulter/Labcyte). Cells were incubated at 37° C., 5% CO2 for 24 hours and then signal was read on a Pherastar FSX using “LUM plus” optic module with 4095 gain and measurement interval time 0.2 seconds.
Analysis was performed in Genedata Screener (Genedata, Basel, CH). Luminescence response (R) was calculated by the formula: response=100*(S−N)/(P−N) where S is the signal of the well, N and P the mean negative and positive control values respectively of the same plate. The luminescence response was then fitted in Genedata using a 4-parameter antagonist logistic fit (hill slope unconstrained, EC50>0, top/bottom unconstrained).

[1] = NEK7 degradation, read-out: NanoBiT Dmax
[2] = NEK7 degradation, read-out: NanoBiT DC50

Chain of CRBN-DDB1 (Q96SW2 whole entry): as the sequence (Q96SW2 whole entry) above
Chain of CRBN-DDB1 (Q16531 whole entry partner): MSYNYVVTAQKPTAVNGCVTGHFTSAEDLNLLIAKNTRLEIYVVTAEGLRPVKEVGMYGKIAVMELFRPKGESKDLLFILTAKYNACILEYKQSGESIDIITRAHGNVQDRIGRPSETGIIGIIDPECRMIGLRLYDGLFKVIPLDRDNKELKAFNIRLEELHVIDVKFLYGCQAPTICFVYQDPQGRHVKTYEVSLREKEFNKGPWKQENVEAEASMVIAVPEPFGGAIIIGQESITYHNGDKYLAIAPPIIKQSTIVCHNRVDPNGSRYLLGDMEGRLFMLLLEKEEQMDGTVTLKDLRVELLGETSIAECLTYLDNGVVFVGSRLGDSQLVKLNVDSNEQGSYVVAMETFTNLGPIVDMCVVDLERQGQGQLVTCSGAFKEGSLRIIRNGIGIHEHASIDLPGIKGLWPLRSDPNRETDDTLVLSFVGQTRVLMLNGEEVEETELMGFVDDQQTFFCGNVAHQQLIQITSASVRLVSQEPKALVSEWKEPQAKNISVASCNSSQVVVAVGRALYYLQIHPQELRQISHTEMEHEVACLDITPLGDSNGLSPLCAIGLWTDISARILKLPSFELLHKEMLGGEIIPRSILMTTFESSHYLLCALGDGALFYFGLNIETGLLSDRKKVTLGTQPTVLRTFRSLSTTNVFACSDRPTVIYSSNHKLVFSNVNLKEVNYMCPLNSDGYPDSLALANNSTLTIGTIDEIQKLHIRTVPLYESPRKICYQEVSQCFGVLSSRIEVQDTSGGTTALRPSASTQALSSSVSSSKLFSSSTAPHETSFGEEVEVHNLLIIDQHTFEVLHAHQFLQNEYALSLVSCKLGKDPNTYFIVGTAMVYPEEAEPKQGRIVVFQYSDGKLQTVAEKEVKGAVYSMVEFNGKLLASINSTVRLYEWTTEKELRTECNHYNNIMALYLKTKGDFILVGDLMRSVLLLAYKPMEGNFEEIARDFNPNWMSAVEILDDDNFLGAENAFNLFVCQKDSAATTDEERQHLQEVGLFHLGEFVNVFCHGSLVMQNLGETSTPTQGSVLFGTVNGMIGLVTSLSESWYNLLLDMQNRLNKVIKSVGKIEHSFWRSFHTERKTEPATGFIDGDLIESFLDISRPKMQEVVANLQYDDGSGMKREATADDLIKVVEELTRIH

Row | SMILES | pEC50 (CRBN-DDB1) | pEC50 (CRBN-DDB1; HTRF class, Cereblon binding) | Dmax (NEK7; read-out: NEK7 NanoBiT Dmax) [%] | Dmax (NEK7; [1]) [%] | DC50 (NEK7; read-out: NEK7 NanoBiT DC50) [nM] | DC50 (NEK7; [2]) [nM]
1 | Cc1cnc(C(C)(C)C(=O)NCc2cc(Cl)c([C@H]3CCC(=O)NC3=O)c(Cl)c2)nc1 (single isomer, unassigned) [Compound 155] | ≤ 5.00 | < 6.00 | 75 | 50 to 75 | 186 | 100 to 1000
2 | CC(C)(C(=O)NCc1cc(Cl)c([C@@H]2CCC(=O)NC2=O)c(Cl)c1)c1ncccn1 (single isomer, unassigned) [Compound 179] | 5.38 | < 6.00 | 59 | 50 to 75 | 578 | 100 to 1000
3 | Cc1nnc(C(C)(C)C(=O)NCc2cc(Cl)c([C@H]3CCC(=O)NC3=O)c(Cl)c2)o1 (single isomer, unassigned) [Compound 225] | 5.18 | < 6.00 | 49 | ≤ 50 | 1000 | > 1000
4 | Cc1cnc(C(C)(C)C(=O)NCc2cc(Cl)c([C@]3(F)CCC(=O)NC3=O)c(Cl)c2)nc1 (single isomer, unassigned) [Compound 243] | ≤ 5.00 | < 6.00 | 9 | ≤ 50 | 1000 | > 1000
5 | Cc1cnc(C(C)(C)C(=O)NCc2cc(Cl)c([C@@]3(F)CCC(=O)NC3=O)c(Cl)c2)nc1 (single isomer, unassigned) [Compound 244] | 6.66 | 6.00 to 7.00 | 19 | ≤ 50 | 1000 | > 1000
6 | CC(C)(C(=O)NCc1cc(Cl)c([C@]2(F)CCC(=O)NC2=O)c(Cl)c1)c1ccccc1 (single isomer, unassigned) [Compound 273] | 6.60 | 6.00 to 7.00 | 70 | 50 to 75 | 136 | 100 to 1000
7 | CC(C)(C(=O)NCc1cc(Cl)c([C@@]2(F)CCC(=O)NC2=O)c(Cl)c1)c1ccccc1 (single isomer, unassigned) [Compound 274] | ≤ 5.00 | < 6.00 | 3 | ≤ 50 | 1000 | > 1000
8 | CC(C)(C(=O)NCc1ccc(C2CCC(=O)NC2=O)c(Cl)c1)c1cccc(C(F)(F)F)n1 (centres unmarked) [Compound 104] | – | – | 80 | > 75 | 122 | 100 to 1000
9 | Cc1noc(C)c1C(C)(C)C(=O)NCc1cc(Cl)c(C2CCC(=O)NC2=O)c(Cl)c1 (centres unmarked) [Compound 112] | – | – | 40 | ≤ 50 | 1000 | > 1000
10 | CC(C)(C(=O)NCc1cc(Cl)c(C2CCC(=O)NC2=O)c(Cl)c1)c1cscn1 (centres unmarked) [Compound 113] | – | – | 61 | 50 to 75 | 151 | 100 to 1000
11 | CC(C)(C(=O)NCc1cc(Cl)c(C2CCC(=O)NC2=O)c(Cl)c1)c1c[nH]cn1 (centres unmarked) [Compound 118] | – | – | 48 | ≤ 50 | 760 | 100 to 1000
12 | Cn1cnnc1C(C)(C)C(=O)NCc1cc(Cl)c(C2CCC(=O)NC2=O)c(Cl)c1 (centres unmarked) [Compound 119] | – | – | 45 | ≤ 50 | 1000 | > 1000
13 | CC(C)(C(=O)NCc1cc(Cl)c(C2CCC(=O)NC2=O)c(Cl)c1)c1ccc(CC#N)nn1 (centres unmarked) [Compound 214] | – | – | 49 | ≤ 50 | 635 | 100 to 1000

Now those with a lower DC50 (NEK7; read-out: NEK7 NanoBiT DC50), led by results:

Row | pEC50 (CRBN-DDB1) | pEC50 (CRBN-DDB1; HTRF class, Cereblon binding) | Dmax (NEK7; read-out: NEK7 NanoBiT Dmax) [%] | Dmax (NEK7; [1]) [%] | DC50 (NEK7; read-out: NEK7 NanoBiT DC50) [nM] | DC50 (NEK7; [2]) [nM] | SMILES
14 | 6.62 | 6.00 to 7.00 | 95 | > 75 | 2 | ≤ 100 | CC(C)(C(=O)NCc1cc(Cl)c([C@@H]2CCC(=O)NC2=O)c(Cl)c1)c1ncc(C#N)cn1 (single isomer, unassigned) [Compound 152]
15 | ≤ 5.00 | < 6.00 | 90 | > 75 | 53 | ≤ 100 | CC(C)(C(=O)NCc1cc(Cl)c([C@H]2CCC(=O)NC2=O)c(Cl)c1)c1ncc(C#N)cn1 (single isomer, unassigned) [Compound 153]
16 | 6.74 | 6.00 to 7.00 | 89 | > 75 | 4 | ≤ 100 | Cc1cnc(C(C)(C)C(=O)NCc2cc(Cl)c([C@@H]3CCC(=O)NC3=O)c(Cl)c2)nc1 (single isomer, unassigned) [Compound 154]
17 | 6.92 | 6.00 to 7.00 | 81 | > 75 | 16 | ≤ 100 | CC(C)(C(=O)NCc1cc(Cl)c([C@H]2CCC(=O)NC2=O)c(Cl)c1)c1ncccn1 (single isomer, unassigned) [Compound 180]
18 | 7.05 | ≥ 7.00 | 77 | > 75 | 32 | ≤ 100 | Cc1nnc(C(C)(C)C(=O)NCc2cc(Cl)c([C@@H]3CCC(=O)NC3=O)c(Cl)c2)o1 (single isomer, unassigned) [Compound 224]
19 | 6.82 | 6.00 to 7.00 | 89 | > 75 | 9 | ≤ 100 | CC(C)(C(=O)NCc1cc(Cl)c(C2CCC(=O)NC2=O)c(Cl)c1)c1ncc(C2CC2)cn1 (centres unmarked) [Compound 1, 2-(5-cyclopropylpyrimidin-2-yl)-N-(3,5-dichloro-4-(2,6-dioxopiperidin-3-yl)benzyl)-2-methylpropan-amide]
20 | – | – | 91 | > 75 | 45 | ≤ 100 | CC(C)(C(=O)NCc1ccc(C2CCC(=O)NC2=O)c(Cl)c1)c1ccc(OC(F)(F)F)cc1 (centres unmarked) [Compound 100]
21 | – | – | 95 | > 75 | 5 | ≤ 100 | CC(C)(C(=O)NCc1ccc(C2CCC(=O)NC2=O)c(Cl)c1)c1ccc(Cl)cc1 (centres unmarked) [Compound 101]
22 | – | – | 86 | > 75 | 51 | ≤ 100 | CC1(C(=O)NCc2ccc(C3CCC(=O)NC3=O)c(Cl)c2)CCc2ccccc2C1 (centres unmarked) [Compound 102]
23 | – | – | 84 | > 75 | 58 | ≤ 100 | CC(C)(C(=O)NCc1ccc(C2CCC(=O)NC2=O)c(Cl)c1)c1ccc(Cl)nc1 (centres unmarked) [Compound 105]
24 | – | – | 69 | 50 to 75 | 52 | ≤ 100 | CC(C)(C(=O)NCc1cc(Cl)c(C2CCC(=O)NC2=O)c(Cl)c1)c1cncs1 (centres unmarked) [Compound 114]
25 | – | – | 76 | > 75 | 43 | ≤ 100 | CC(C)(C(=O)NCc1cc(Cl)c(C2CCC(=O)NC2=O)c(Cl)c1)c1cc[nH]n1 (centres unmarked) [Compound 115]
26 | – | – | 80 | > 75 | 20 | ≤ 100 | Cc1cc(C(C)(C)C(=O)NCc2cc(Cl)c(C3CCC(=O)NC3=O)c(Cl)c2)nn1C (centres unmarked) [Compound 116]
27 | – | – | 74 | 50 to 75 | 51 | ≤ 100 | Cn1ccc(C(C)(C)C(=O)NCc2cc(Cl)c(C3CCC(=O)NC3=O)c(Cl)c2)n1 (centres unmarked) [Compound 117]
